Assay results reported in ChEMBL document CHEMBL2440076, “New triarylpyrazoles as broad-spectrum anticancer agents: design, synthesis, and biological evaluation” (Eur J Med Chem, 2013).

Legend:
Assay type in all cases: functional
DU-145 = test: Growth inhibition of human DU145 cells assessed as cell growth at 10^-5 M after 48 hrs by sulforhodamine B assay; settings: DU-145, 48 h, read-out: Activity
SW-620 = test: Growth inhibition of human SW620 cells assessed as cell growth at 10^-7 M after 48 hrs by sulforhodamine B assay; settings: SW-620, 48 h, read-out: Activity
RXF 393 = test: Growth inhibition of human RXF393 cells assessed as cell growth at 10^-7 M after 48 hrs by sulforhodamine B assay; settings: RXF 393, 48 h, read-out: Activity
[1] = Growth inhibition of human NCI-ADR-RES cells assessed as cell growth at 10^-4 M after 48 hrs by sulforhodamine B assay; settings: read-out: Activity
CCRF-CEM = test: Growth inhibition of human CCRF-CEM cells assessed as cell growth at 10^-6 M after 48 hrs by sulforhodamine B assay; settings: read-out: Activity
BT-549 = test: Growth inhibition of human BT549 cells assessed as cell growth at 10^-7 M after 48 hrs by sulforhodamine B assay; settings: BT-549, 48 h, read-out: Activity
SNB-19 = test: Growth inhibition of human SNB19 cells assessed as cell growth at 10^-7 M after 48 hrs by sulforhodamine B assay; settings: SNB-19, 48 h, read-out: Activity
SF-295 = test: Growth inhibition of human SF295 cells assessed as cell growth at 10^-4 M after 48 hrs by sulforhodamine B assay; settings: SF-295, 48 h, read-out: Activity
OVCAR-3 = test: Growth inhibition of human OVCAR3 cells assessed as cell growth at 10^-6 M after 48 hrs by sulforhodamine B assay; settings: OVCAR-3, 48 h, read-out: Activity

SMILES | growth at 10 µM (DU-145) [%] | growth at 0.1 µM (SW-620) [%] | growth at 0.1 µM (RXF 393) [%] | growth at 100 µM [1] [%] | growth at 1 µM (CCRF-CEM) [%] | growth at 0.1 µM (BT-549) [%] | growth at 0.1 µM (SNB-19) [%] | growth at 100 µM (SF-295) [%] | growth at 1 µM (OVCAR-3) [%]
COc1cc(-c2nn(-c3cccc(NC(=O)c4ccc(N5CCOCC5)c(C(F)(F)F)c4)c3)cc2-c2ccncc2)ccc1Cl | 13 | 58 | 78 | 2 | 12 | 95 | 81 | -72 | 
COc1cc(-c2nn(-c3cccc(NC(=O)c4ccccc4)c3)cc2-c2ccncc2)ccc1Cl | 13 | 92 | 113 |  | 27 | 88 | 97 | -46 | 4
